{"source": "paper PMC5546605", "about": "(PLoS ONE, 2017)", "key": {"[1]": {"biological_target": "T1, cellular prion protein (PrP^C) (Homo sapiens, UniProt P04156)", "T1 construct": "gene PRNP", "assay": "biochemical", "type": "binding"}, "[2]": {"biological_target": "T2, cellular prion protein (PrP^C) (Mus musculus, UniProt P04925)", "T2 construct": "gene Prnp", "T2 sequence (P04925 23-230 limits assumed)": "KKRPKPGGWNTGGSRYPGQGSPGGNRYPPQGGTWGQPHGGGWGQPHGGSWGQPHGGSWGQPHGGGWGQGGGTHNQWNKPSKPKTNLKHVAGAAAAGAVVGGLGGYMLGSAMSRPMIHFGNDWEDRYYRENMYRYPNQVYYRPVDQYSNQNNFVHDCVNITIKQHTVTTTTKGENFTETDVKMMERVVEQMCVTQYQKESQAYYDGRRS", "assay": "biochemical", "type": "binding"}}}
{"smiles": "CN(C)CCCN1c2ccccc2Sc2ccc(Cl)cc21", "note": "[CPZ, chlorpromazine]", "values": [{"measurement": "Kd", "setting": "[1]", "result": 421, "unit": "µM"}, {"measurement": "Kd", "setting": "[2]", "result": "> 100", "unit": "µM"}]}
